Results published in patent US9062123B2, “Labelled adrenomedullin derivatives and their use for imaging and therapy” (PLUMOSCIENCE INC., priority 2004, dated 2015).

Assay: Plasma kinetics of 99mTc-cyclic AM and 99mTc-linear AM in dogs
Format: in vivo, dog
Details: two-compartment model
Protocol: The radiolabelled AM derivatives were injected in a volume of 1.5 mL into a right jugular vein catheter. A series of 200 μl blood samples were collected 1 min after the initial injection, then repeated every 5 min for a 30-min period. After each collection, an equal volume of saline was injected into the animal to maintain blood volume and pressure. The blood samples were then placed in a gamma counter (model 1470 Wizard, Wallac, Finland) to determine ^99mTc activity. Results were expressed as a percentage of total radioactivity injected.

distribution half-life: less than two min
SMILES: CC[C@H](C)[C@H](NC(=O)[C@H](CCC(N)=O)NC(=O)[C@H](Cc1c[nH]cn1)NC(=O)[C@H](C)NC(=O)[C@H](CC(C)C)NC(=O)[C@H](CCCCN)NC(=O)[C@H](CCC(N)=O)NC(=O)[C@@H](NC(=O)[C@@H](NC(=O)[C@@H]1CSSC[C@H](NC(=O)CNC(=O)[C@H](Cc2ccccc2)NC(=O)[C@H](CO)NC(=O)[C@H](CCCNC(=N)N)NC(=O)[C@H](CC(C)C)NC(=O)CNC(=O)[C@H](CCC(N)=O)NC(=O)[C@H](Cc2ccccc2)NC(=O)[C@H](CC(N)=O)NC(=O)[C@H](CC(N)=O)NC(=O)[C@H](CCSC)NC(=O)[C@H](CO)NC(=O)[C@H](CCC(N)=O)NC(=O)[C@H](CCCNC(=N)N)NC(=O)[C@H](Cc2ccc(O)cc2)NC(=O)CN(CCN(CCN(CC(=O)O)CC(=O)O)CC(=O)O)CC(=O)O)C(=O)N[C@@H](CCCNC(=N)N)C(=O)N[C@@H](Cc2ccccc2)C(=O)NCC(=O)N[C@@H]([C@@H](C)O)C(=O)N1)[C@@H](C)O)C(C)C)C(=O)N[C@@H](Cc1ccc(O)cc1)C(=O)N[C@@H](CCC(N)=O)C(=O)N[C@@H](Cc1ccccc1)C(=O)N[C@H](C(=O)N[C@@H](CC(=O)O)C(=O)N[C@@H](CCCCN)C(=O)N[C@@H](CC(=O)O)C(=O)N[C@@H](CCCCN)C(=O)N[C@@H](CC(=O)O)C(=O)N[C@@H](CC(N)=O)C(=O)N[C@H](C(=O)N[C@@H](C)C(=O)N1CCC[C@H]1C(=O)N[C@@H](CCCNC(=N)N)C(=O)N[C@@H](CO)C(=O)N[C@@H](CCCCN)C(=O)N[C@H](C(=O)N[C@@H](CO)C(=O)N1CCC[C@H]1C(=O)N[C@@H](CCC(N)=O)C(=O)NCC(=O)N[C@@H](Cc1ccc(O)cc1)C(N)=O)[C@@H](C)CC)C(C)C)[C@@H](C)O [^99mTc-cyclic AM, metal not drawn]
